From paper PMC9234961 (Journal of Medicinal Chemistry, 2022)

Tests used:
in vitro = in vitro ADME; conditions: BALB/c; mouse plasma, rapid equilibrium dialysis; read-out: mouse (BALB\c) PPB (converted)
HT DLBCL xenograft = assay: Efficacy study in HT DLBCL xenograft model; type: in vivo, mouse
Description: single treatment of vehicle.
7.3.3 Preparation of HT Cells […]
subcultured 1:4 every 3-4 days. […]
pharmacokinetic analysis (PK).
7.3.6 Tumour lysis and Wes method
Lysates were incubated on
Samples were stored at -80 °C until use.
Data was analysed using Compass for SW software. BCL6

ADRB2 = target: T1, ADRB2 (Homo sapiens, UniProt P07550); assay: SAFETYScan GPCR cAMP, Antagonist; type: cell-based
T1 construct: expressed in transfected cells
T1 sequence (P07550 whole entry): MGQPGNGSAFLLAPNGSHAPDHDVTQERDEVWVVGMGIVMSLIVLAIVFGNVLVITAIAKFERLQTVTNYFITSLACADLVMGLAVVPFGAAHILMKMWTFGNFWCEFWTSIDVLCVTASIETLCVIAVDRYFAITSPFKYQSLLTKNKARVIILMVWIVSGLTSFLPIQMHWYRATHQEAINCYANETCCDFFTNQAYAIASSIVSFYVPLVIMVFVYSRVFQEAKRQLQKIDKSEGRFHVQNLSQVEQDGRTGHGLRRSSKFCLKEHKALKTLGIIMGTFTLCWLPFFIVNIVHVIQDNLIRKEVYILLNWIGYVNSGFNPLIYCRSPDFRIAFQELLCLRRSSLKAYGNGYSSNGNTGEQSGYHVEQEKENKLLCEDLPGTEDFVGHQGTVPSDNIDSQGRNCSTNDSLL
Description: (§1) Supplement jm1c02175_si_002.xlsx, sheet "SAFETYScan" | column: RC50 (uM); Max Response

CHRM2 = target: T2, CHRM2 (Homo sapiens, UniProt P08172); assay: SAFETYScan GPCR cAMP, Antagonist; type: cell-based
T2 construct: expressed in transfected cells
T2 sequence (P08172 1-466): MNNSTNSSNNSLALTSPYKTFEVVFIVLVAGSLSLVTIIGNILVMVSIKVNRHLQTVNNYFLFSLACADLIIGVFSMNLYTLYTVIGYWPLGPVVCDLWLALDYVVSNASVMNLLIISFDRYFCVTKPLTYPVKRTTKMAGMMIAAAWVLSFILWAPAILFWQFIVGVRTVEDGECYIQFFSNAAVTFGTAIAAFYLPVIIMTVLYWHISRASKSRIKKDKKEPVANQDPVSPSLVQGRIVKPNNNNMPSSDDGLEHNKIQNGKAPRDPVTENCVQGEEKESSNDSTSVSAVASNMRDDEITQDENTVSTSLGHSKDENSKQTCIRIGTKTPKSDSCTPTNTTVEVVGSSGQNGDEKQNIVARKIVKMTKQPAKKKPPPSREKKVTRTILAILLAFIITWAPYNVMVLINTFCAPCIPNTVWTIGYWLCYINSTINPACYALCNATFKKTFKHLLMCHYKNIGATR
Description: as §1

In the case of C[C@H]1C[C@@H](O)CN(c2ncc(Cl)c(Nc3ccc4c(c3)c3c(c(=O)n4C)OCC(F)(F)[C@H](C4CC4)N3)n2)C1 [12a CCT373566, (S)-10-((5-Chloro-2-((3R,5S)-3-hydroxy-5-methylpiperidin-1-yl)pyrimidin-4-yl)amino)-2-cyclopropyl-3,3-difluoro-7-methyl-1,2,3,4-tetrahydro-[1,4]oxazepino[2,3-c]quinolin-6(7H)-one], the fraction unbound (in vitro) is reported as 0.0012, the T/C (HT DLBCL xenograft; 50 mg/kg BID, 22 days) is reported as 60% and the “BCL6 levels after the last dose” value (HT DLBCL xenograft; 50 mg/kg po bid for 22 days, 4 h and 12 h after last dose) is reported as “remained decreased 4 h and 12 h after the last dose”. For the same compound, the body weight (HT DLBCL xenograft; 50 mg/kg po bid, 22 days) was “No body weight losses were observed”, the “tumor growth compared to the vehicle control group” value (HT DLBCL xenograft; 50 mg/kg po bid, 22 days) was “modest decrease in tumor growth” and the Emax (ADRB2; read-out: Max Response) was 62.3%. For the same compound, the IC50 (ADRB2; read-out: RC50 (IC50)) was 1740 nM, the Emax (CHRM2; read-out: Max Response) was 30.1% and the IC50 (CHRM2; read-out: RC50 (IC50)) was > 10000 nM.
